Test results taken from US10478482B2, “Vaccines for prevention and treatment of tuberculosis” (ALARUM DEVELOPMENT LTD, priority 2011, dated 2019).

How the values were obtained:
[1] = test system: serum from patients with TB; experiment: Antibody recognition of peptides by serum from patients with TB; type: binding, human; details: for Average int. / N. of slide (frequency of recognition): serum from the group TB; for N. of slide (frequency of recognition): out of 9 individuals
Description: (§1) Serum was obtained from patients with sarcoidosis (FIG. 4A) and from patients with TB (FIG. 4B). The number indicate the frequency of recognition, e.g. 1/9 individuals up to 9/9 individuals. The listed peptides are only listed if they are present in one group (sarcoidosis versus tuberculosis) and if the peptide is never recognized in any serum from the respective control group. […] Strong IgG response requires strong T-cell help which lends support that these antigens are also recognized by T-cells.

[2] = test system: serum from patients with sarcoidosis; experiment: Antibody recognition of peptides by serum from patients with sarcoidosis; type: binding, human; details: for Average int. / N. of slide (frequency of recognition): serum from the group sarcoidosis; for N. of slide (frequency of recognition): out of 9 individuals
Description: as §1

peritoneal macrophages = experiment: Cytokine induction in peritoneal macrophages; type: cell-based, mouse; details: FIG. 10
PBMCs = type: cell-based, monkey
[3] = test system: IFNγ production in freshly harvested Heparin-blood; type: cell-based, human

| Substance | Average int. [1] | N. of slide (frequency of recognition) [1] | Average int. [2] | N. of slide (frequency of recognition) [2] | other results |
| --- | --- | --- | --- | --- | --- |
| AAGNNVTVFGYSQSA [CAE55427-PPE family protein_289] | 0.4545 | 6 |  |  |  |
| APALMDVEAAYEQMW [CAE55281-PPE family protein_133] |  |  | 1.6787 | 9 |  |
| AWVSRGAHKLVGALE [CAB10951-cytotoxin haemolysin homologue TLYA_61] | 0.7175 | 7 |  |  |  |
| GGGNTGSGNIGNGNK [CAE55613-PPE family protein_193] |  |  | 1.2266 | 9 |  |
| GLYQVVPGIYQVRGF [CAA18084-possible hydrolase_85] | 0.5432 | 8 |  |  |  |
| GSSAMILAAYHPQQF [CAB10044-secreted antigen 85-B FBPB (85B)A_169] |  |  | 0.6077 | 9 |  |
| LSGDNQQGFNFAGGW [CAE55276-PPE family protein_1117] |  |  | 1.6435 | 9 |  |
| MTAPVWLASPPEVHS [CAE55538-PPE family protein_1] | 0.8461 | 8 |  |  |  |
| NANFGGGNGSAFHGQ [CAE55320-PPE family protein_205] |  |  | 1.4131 | 9 |  |
| NTGSYNMGDFNPGSS [CAE55416-PPE family protein_385] | 0.9479 | 7 |  |  |  |
| Possible glycosyltransferase [CAB05419/Rv2957] |  |  |  |  | induction of IL-10 (peritoneal macrophages): little induction; induction of IL-12 (peritoneal macrophages): Strong induction; induction of TGF-β (peritoneal macrophages): Strong induction; induction of TN-Fa (peritoneal macrophages): little induction; recognition by serum from the group TB (in words) [1]: most frequently recognized; recognition by serum from the group sarcoidosis (in words) [2]: never; intracellular cytokines, here represented by IL-2 (PBMCs): Detection of intracellular cytokines; antigen-specific T-cell responses (IFNγ) [3]: can be detected |
| QWILHMAKLSAAMAK [CAA17973-conserved hypothetical alanine and_193] | 0.4333 | 6 |  |  |  |
| SSGKPGRDPEAGRYG [CAB02482-probable lipase lipe_385] |  |  | 1.3190 | 9 |  |
| TRLGIRLVIVLVRRW [CAB05419-possible glycosyl transferase_241] | 0.9264 | 9 |  |  |  |
| VIGGIGPIHVQPIDI [CAE55585-PPE family protein_865] |  |  | 0.7433 | 9 |  |
